Columns and labels:
[1] = Human plasma concentrations after erlotinib dosing (literature)
[2] = target: T1, human liver cytosolic AOX1 (Homo sapiens, UniProt Q06278); assay: Dialysis experiment (reversibility of AOX1 inactivation); format: biochemical; set-up: Enzymatic reaction was initiated by adding human liver cytosol (100 μg); tissue Corning, Inc. (Gentest brand) 452115; host or cells: human liver cytosol, pool of 150 donors; settings: 1.5 μM; for recovery of carbazeran 4-oxidation activity after dialysis: 4 and 24 hours of dialysis at 4 °C; for residual AOX1 activity: 6-minute preincubation, % of nondialyzed vehicle control
T1 sequence (Q06278 1-1338): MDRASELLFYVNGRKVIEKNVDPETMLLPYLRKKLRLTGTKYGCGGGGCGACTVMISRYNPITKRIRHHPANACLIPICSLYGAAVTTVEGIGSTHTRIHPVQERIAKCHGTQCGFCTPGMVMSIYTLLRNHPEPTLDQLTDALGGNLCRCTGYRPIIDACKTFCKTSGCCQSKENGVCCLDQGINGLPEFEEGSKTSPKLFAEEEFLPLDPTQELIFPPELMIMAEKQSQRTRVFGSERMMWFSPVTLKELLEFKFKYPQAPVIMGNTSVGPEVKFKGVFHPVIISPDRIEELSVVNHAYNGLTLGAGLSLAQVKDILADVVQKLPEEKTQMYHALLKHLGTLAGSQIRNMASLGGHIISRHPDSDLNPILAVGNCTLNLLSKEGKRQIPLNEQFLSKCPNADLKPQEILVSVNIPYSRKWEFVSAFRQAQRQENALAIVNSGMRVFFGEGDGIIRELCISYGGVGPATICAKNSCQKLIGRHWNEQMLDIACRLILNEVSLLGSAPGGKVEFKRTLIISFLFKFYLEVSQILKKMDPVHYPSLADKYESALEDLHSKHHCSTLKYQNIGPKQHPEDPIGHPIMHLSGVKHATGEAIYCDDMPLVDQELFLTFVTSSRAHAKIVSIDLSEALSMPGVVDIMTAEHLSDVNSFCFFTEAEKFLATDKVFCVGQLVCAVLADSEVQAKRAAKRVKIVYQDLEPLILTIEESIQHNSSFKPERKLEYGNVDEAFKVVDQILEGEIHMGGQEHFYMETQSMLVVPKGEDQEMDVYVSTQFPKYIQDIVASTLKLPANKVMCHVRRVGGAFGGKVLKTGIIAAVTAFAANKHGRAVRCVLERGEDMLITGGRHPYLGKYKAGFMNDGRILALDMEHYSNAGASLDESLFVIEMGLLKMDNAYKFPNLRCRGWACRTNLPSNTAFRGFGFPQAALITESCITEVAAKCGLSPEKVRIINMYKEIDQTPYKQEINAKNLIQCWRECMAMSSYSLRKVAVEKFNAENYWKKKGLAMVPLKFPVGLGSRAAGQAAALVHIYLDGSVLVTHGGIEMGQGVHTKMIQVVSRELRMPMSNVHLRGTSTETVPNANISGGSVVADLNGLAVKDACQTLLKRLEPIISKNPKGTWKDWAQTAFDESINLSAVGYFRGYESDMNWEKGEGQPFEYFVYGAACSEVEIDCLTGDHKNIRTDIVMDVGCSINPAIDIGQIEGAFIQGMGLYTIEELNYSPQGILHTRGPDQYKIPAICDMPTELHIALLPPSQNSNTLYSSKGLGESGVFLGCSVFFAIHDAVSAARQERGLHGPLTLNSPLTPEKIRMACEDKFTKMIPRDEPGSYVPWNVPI
Method: Simultaneously, another aliquot (150 μL) of the primary incubation mixture was transferred to a Slide-A-Lyzer mini dialysis device (0.1 mL) with a molecular weight cutoff of 10,000 (Pierce Chemical Co.) and placed in a beaker filled with 300 mL of ice-cold potassium phosphate buffer (100 mM, pH 7.4). Additionally, potassium phosphate buffer (300 mL) was replaced at 2 and 4 hours after the start of dialysis. Dialysis was performed at 4 °C for 4 and 24 hours with constant gentle stirring. Subsequently, 10 μL of the dialyzed mixture was transferred to the secondary incubation mixture and the residual AOX1 enzyme activity was determined by the carbazeran 4-oxidation assay.

[3] = target: T1, human liver cytosolic AOX1; assay: Effects of nucleophilic trapping agents and scavengers of reactive oxygen species on AOX1 inactivation; format: biochemical; set-up: Enzymatic reaction was initiated by adding human liver cytosol (100 μg); tissue Corning, Inc. (Gentest brand) 452115; host or cells: human liver cytosol, pool of 150 donors; settings: inactivator 1.5 μM; for effect of catalase and superoxide dismutase on AOX1 inactivation: catalase 1000 and 2000 U, superoxide dismutase 500 and 1000 U; for effect of glutathione and N-acetylcysteine on AOX1 inactivation: glutathione or N-acetylcysteine 5 and 10 mM, 6 min
Method: The control incubations were described in our previous publication.[28] Each standard incubation mixture was subjected to the same procedures as described in Enzyme Inactivation Experiments. The residual AOX1 enzyme activity was determined by the carbazeran 4-oxidation assay.

[4] = target: T2, human recombinant AOX1 (Homo sapiens, UniProt Q06278); assay: Time-dependent inactivation of carbazeran 4-oxidation by human recombinant AOX1; format: biochemical; settings: each 10 μM (raloxifene 0.02 μM), 30-minute preincubation, vs vehicle control without preincubation
T2 construct: purchased Cypex Ltd CYP150
T2 sequence (Q06278 1-1338): T1 sequence (Q06278 1-1338)
Method: Carbazeran 4-oxidation and O^6-benzylguanine 8-oxidation were deployed as AOX1-selective catalytic markers.[27] The assay conditions (amount of cytosolic protein, incubation time, and substrate concentration) for carbazeran 4-oxidation catalyzed by human recombinant AOX1 and human/rat/mouse liver cytosols were optimized previously.[7]^,[25]
Enzymatic reaction was initiated by adding human liver cytosol (100 μg). After the specified preincubation duration, an aliquot (10 μL) of the preincubation mixture was transferred to 190 μL of a prewarmed (for 3 minutes at 37 °C) secondary incubation mixture (total volume of 200 μL) containing potassium phosphate buffer and carbazeran (15 μM) or O^6-benzylguanine (150 μM), which yielded a 20-fold dilution of the primary incubation mixture. The secondary incubation mixture was incubated for 5 minutes at 37 °C before the enzymatic reaction was terminated with 200 μL of ice-cold acetonitrile containing carbazeran-d4 (2.5 nM final concentration; internal standard for 4-oxo-carbazeran) or tolbutamide (25 nM final concentration; internal standard for 8-oxo-O^6-benzylguanine). Each sample was immediately mixed by vortex, placed on ice, centrifuged at 16,000g for 15 minutes at 4 °C and stored at –30 °C until ultra-high performance liquid chromatography–tandem mass spectrometry (UPLC-MS/MS) analysis. For enzyme inactivation assays involving rat and mouse liver cytosol and recombinant AOX1 assays, the experimental conditions were similar to those of human liver cytosol, except that the amount of cytosolic protein was 200 μg (rat) and 150 μg (mouse), respectively, and the incubation time of the secondary incubation mixture was 60 minutes. For the recombinant AOX1 enzyme assay, the amount of enzyme was 100 μg, the incubation time of the secondary incubation mixture was 15 minutes, and the total volume of the primary and secondary incubation mixtures was reduced to 100 μL.
An aliquot (10 μL) of the primary incubation mixture was transferred to a secondary incubation mixture containing carbazeran (15 μM) and incubated for (A) 180, (B) 5, or (C, D) 120 minutes.

SMILES	Cmax,u ([1]; Cmax,u = plasma fu × Cmax, plasma fu = 0.07)	recovery of carbazeran 4-oxidation activity after dialysis [2]	residual AOX1 activity ([2]; 24-hour dialysis at 4 °C)	residual AOX1 activity ([2]; without dialysis)	effect of catalase and superoxide dismutase on AOX1 inactivation [3]	effect of glutathione and N-acetylcysteine on AOX1 inactivation [3]	decrease in carbazeran 4-oxidation [4]	Cmax,u ([1]; in vivo)
C#Cc1cccc(Nc2ncnc3cc(OCCOC)c(OCCOC)cc23)c1 [Erlotinib]	310 to 380 nM	not recovered	3.7%	7.8%	did not protect	did not reduce the inactivation	–	–
C#Cc1cccc(Nc2ncnc3cc(OCCOC)c(OCCO)cc23)c1 [O-Desmethylerlotinib, O-desmethylerlotinib]	–	not reversed	–	–	did not protect	did not reduce the inactivation	91%	7.7 to 20 nM
C#Cc1cccc(Nc2ncnc3cc(OCCO)c(OCCO)cc23)c1 [O-Didesmethylerlotinib, O-didesmethylerlotinib]	–	not reversed	–	–	did not protect	did not reduce the inactivation	94%	0.1 to 0.8 nM

Reference: paper PMC12881681 (Molecular Pharmacology, 2025)
